Tests used:
[1] = system: HCMV AD169 clone with mutation in UL86 V601M; assay: Susceptibility (IC50) of resistant HCMV AD169 clone V601M; format: cell-based, Human cytomegalovirus; conditions: Human betaherpesvirus 5, read-out: IC 50, V601M
Experimental: (§1) The test compounds are employed as 50 millimolar (mM) solutions in dimethyl sulfoxide (DMSO). Ganciclovir®, Foscarnet® and Cidofovir® are used as reference compounds. After addition of in each case 2 μl of the 50, 5, 0.5 and 0.05 mM DMSO stock solutions to 98 μl portions of cell culture medium in row 2 A-H for duplicate determinations, 1:2 dilutions are carried out with 50 μl portions of medium up to row 11 of the 96-well plate. The wells in rows 1 and 12 each contain 50 μl of medium. 150 μl of a suspension of 1×10^4 cells (human prepuce fibroblasts [NHDF]) are then pipetted into each of the wells (row 1=cell control) and, in rows 2-12, a mixture of HCMV-infected and uninfected NHDF cells (M.O.I.=0.001-0.002), i.e. 1-2 infected cells per 1000 uninfected cells. Row 12 (without substance) serves as virus control. The final test concentrations are 250-0.0005 μM. The plates are incubated at 37° C./5% CO2 for 6 days, i.e. until all the cells are infected in the virus controls (100% cytopathogenic effect [CPE]). The wells are then fixed and stained by adding a mixture of formalin and Giemsa's dye (30 minutes), washed with double-distilled water and dried in a drying oven at 50° C. The plates are then assessed visually using an overhead microscope (plaque multiplier from Technomara).
(§2) For this purpose, NHDF cells are seeded in tissue culture vessels. 5×10^3 cells per well are seeded in 96-well plates and infected with cell-free HCMV AD169 with an moi of 0.03. The infections are cultivated under substance pressure which corresponds to 10 times the IC50 of the substance. Preferably, 30-100 96-well plates inoculated as described are made up. […] Finally, viral stocks are produced as described above and frozen. Serial ten-fold dilution of the virus-infected cells or of the cell culture supernatant of the virus-infected cells is followed by determination of the titer on 24-well plates of confluent NHDF cells after vital staining with neutral red. Finally, the susceptibility to various substances (IC50 determination) is determined as described above.
(§3) The HCMVAD169 mutants selected as described above are grown in vitro on human embryonic prepuce fibroblasts (NHDF cells) under substance pressure (10×IC50 HCMVAD169). After infection of the NHDF cells with a multiplicity of infection (M.O.I) of 0.01, the virus-infected cells are harvested 5-10 days later, and the total DNA is isolated from these cells with the aid of established standard methods (e.g. phenol extraction and ethanol precipitation). Qiagen Sequencing Services (Qiagen, Hilden) determined, after amplification of the viral UL86 gene by PCR, the DNA sequence, which was then transcribed into protein sequence. Compared with the initial strain HCMV AD169, the differences shown in table 2 were detectable in the protein sequence of the major capsid protein (UL86) in the resistant viruses. The IC50 values [μM] of various substances on these mutants compared with the initial strain are likewise indicated. (n.d.=not measured). […] Depending on the nature of the substance, certain mutations lead to various extents of resistance.

[2] = system: HCMV AD169 clone with mutation in UL86 A689T; assay: Susceptibility (IC50) of resistant HCMV AD169 clone A689T; format: cell-based, Human cytomegalovirus; conditions: Human betaherpesvirus 5, read-out: IC 50, A689T
Experimental: as §1, §2, §3

[3] = system: HCMV AD169 clone with mutation in UL86 R682H; assay: Susceptibility (IC50) of resistant HCMV AD169 clone R682H; format: cell-based, Human cytomegalovirus; conditions: Human betaherpesvirus 5, read-out: IC 50, R682H
Experimental: as §1, §2, §3

[4] = system: HCMV AD169 clone with mutation in UL86 Q1223R; assay: Susceptibility (IC50) of resistant HCMV AD169 clone Q1223R; format: cell-based, Human cytomegalovirus; conditions: Human betaherpesvirus 5, read-out: IC 50, Q1223R
Experimental: as §1, §2, §3

[5] = system: HCMV Davis or HCMV AD169; assay: HCMV Xenograft Gelfoam model; format: in vivo, immunodeficient mice; conditions: oral treatment over 8 days, infectious virus particles vs placebo-treated control; approximate results
From the text: 3-4-week old female immunodeficient mice (16-18 g), Fox Chase SCID or Fox Chase SCID-NOD or SCID beige, are purchased from commercial breeders (Bomholtgaard, Jackson, USA). The animals are housed under sterile conditions (including bedding and feed) in isolators.
Collagen sponges 1×1×1 cm in size (Gelfoam®; from Peasel & Lorey, order No. 407534; K. T. Chong et al., Abstracts of 39th Interscience Conference on Antimicrobial Agents and Chemotherapy, 1999, p. 439) are initially wetted with phosphate-buffered saline (PBS), the trapped air bubbles are removed by degassing, and then stored in MEM+10% FCS. 1×10^6 virus-infected NHDF cells (infection with HCMV Davis or HCMV AD169 M.O.I.=0.03) are detached 3 hours after infection and added in a drop of 20 μl of MEM, 10% FCS, to a moist sponge. 12-13 hours later, the infected sponges are incubated with 25 μl of PBS/0.1% BSA/1 mM DTT with 5 ng/μl basic fibroblast growth factor (bFGF). For the transplantation, the immunodeficient mice are anesthetized with Avertin or a ketamine/xylazine/azepromazine mixture, the fur on the back is removed using a shaver, the epidermis is opened 1-2 cm, unstressed and the moist sponges are transplanted under the dorsal skin. The surgical wound is closed with tissue glue. 6 hours after the transplantation, the mice are treated for the first time (one treatment is given on the day of the operation). On subsequent days, oral treatment with the substance is carried out three times a day (7.00 h and 14.00 h and 19.00 h), twice a day (8 h and 18 h) or once a day (14 h) over a period of 8 days. The daily dose is for example 3 or 10 or 30 or 60 or 100 mg/kg of body weight, the volume administered is 10 ml/kg of body weight. The substances are formulated in the form of a 0.5% strength Tylose suspension with 2% DMSO or a 0.5% strength Tylose suspension. […] The number of infectious virus particles after the substance treatment compared with the placebo-treated control group is determined.

[6] = system: HCMV AD169 clone with mutation in UL86 P1189T; assay: Susceptibility (IC50) of resistant HCMV AD169 clone P1189T; format: cell-based, Human cytomegalovirus; conditions: Human betaherpesvirus 5, read-out: IC 50, P1189T
Experimental: as §1, §2, §3

[7] = system: HCMV AD169 clone with mutation in UL86 E1320Q; assay: Susceptibility (IC50) of resistant HCMV AD169 clone E1320Q; format: cell-based, Human cytomegalovirus; conditions: Human betaherpesvirus 5, read-out: IC 50, E1320Q
Experimental: as §1, §2, §3

Question: For `CC1(C)CC(=O)NN=C1c1cccc(NC(=O)Nc2ccc(F)cc2F)c1` [Example 1, N-(2,4-Difluorophenyl)-N′-[3-(4,4-dimethyl-6-oxo-1,4,5,6-tetrahydro-3-pyridazinyl)phenyl]urea], which IC50 [1] is on record?
Answer: Its IC50 is 20000 nM.

Question: And the IC50 [2]?
Answer: The IC50 was 6000 nM.

Question: What about the IC50 [3] of the same compound?
Answer: The IC50 was 20000 nM.

Question: And the IC50 [4]?
Answer: The IC50 was 20000 nM.

Question: And the “ED50, antiviral activity in vivo” value [5]?
Answer: The value was 50 mg/kg/day.

Question: What about the IC50 [6] of the same compound?
Answer: The IC50 was over 125000 nM.

Question: What about the IC50 [7] of the same compound?
Answer: Its IC50 is over 125000 nM.

Question: How did the IC50 [1] turn out when `CC1(C)CC(=O)NN=C1c1cc(NC(=O)Nc2cc(F)ccc2F)ccc1O` [Example 2, N-(2,5-Difluorophenyl)-N′-[3-(4,4-dimethyl-6-oxo-1,4,5,6-tetrahydro-3-pyridazinyl)-4-hydroxyphenyl]urea] was run?
Answer: Its IC50 is 3000 nM.

Question: And the IC50 [2]?
Answer: Its IC50 is 1000 nM.

Question: And the IC50 [3]?
Answer: The IC50 was 3000 nM.

Question: What about the IC50 [4] of the same compound?
Answer: The IC50 was 6000 nM.

Question: What about the “ED50, antiviral activity in vivo” value [5] of the same compound?
Answer: Its value is 45 mg/kg/day.

Question: What about the IC50 [6] of the same compound?
Answer: Its IC50 is over 125000 nM.

Question: And the IC50 [7]?
Answer: The IC50 was 13000 nM.

Question: `CCCCC(=O)Nc1ccc(NC(=O)Nc2ccc(F)c(Cl)c2)cc1` [Example 4, N-[4-({[(3-Chloro-4-fluorophenyl)amino]carbonyl}amino)phenyl]pentanamide] was tested. Which IC50 [1] did it give?
Answer: The IC50 was 500 nM.

Question: What about the IC50 [2] of the same compound?
Answer: Its IC50 is 500 nM.

Question: And the IC50 [3]?
Answer: The IC50 was 500 nM.

Question: What about the IC50 [4] of the same compound?
Answer: The IC50 was 1000 nM.

Question: What about the “ED50, antiviral activity in vivo” value [5] of the same compound?
Answer: The value was 70 mg/kg/day.

Question: What about the IC50 [6] of the same compound?
Answer: Its IC50 is 2000 nM.

Question: And the IC50 [7]?
Answer: The IC50 was 2000 nM.

Reference: patent US20070004735A1, “Method for inhibiting the replication of herpes viruses” (priority 2003, published 2007)
